{"source": "ChEMBL document CHEMBL5244279", "about": "“Perspectives on SARS-CoV-2 Main Protease Inhibitors” (J Med Chem, 2021)", "key": {"[1]": {"test": "Inhibition of SARS CoV Main protease using MCA-AVLQSGFR-Lys(DNP)-Lys-NH2 peptide as substrate by fluorescence based analysis", "set-up": "species or system Severe acute respiratory syndrome-related coronavirus"}, "[2]": {"test": "Binding affinity to SARS CoV Main protease incubated for 20 mins by reverse-phase HPLC analysis", "set-up": "species or system Severe acute respiratory syndrome-related coronavirus"}, "[3]": {"biological_target": "Replicase polyprotein 1ab (Severe acute respiratory syndrome coronavirus 2, UniProt P0DTD1)", "test": "Inhibition of SARS CoV-2 Main protease using MCA-AVLQSGFR-Lys(DNP)-Lys-NH2 peptide as substrate by fluorescence based analysis"}, "[4]": {"test": "Inhibition of SARS CoV Main protease using 2-aminobenzoyl-SVTLQSG-Tyr(NO2)-R peptide as substrate by FRET assay", "set-up": "species or system Severe acute respiratory syndrome-related coronavirus"}, "[5]": {"test": "AUC in Beagle dog at 5 mg/kg, iv measured upto 24 hrs by LC-MS/MS analysis", "assay_type": "ADME, organism-based, Canis lupus familiaris", "set-up": "time < 24 hrs, dose 5 mg/kg, route iv", "settings": "in vivo"}, "[6]": {"test": "Half life in Beagle dog at 5 mg/kg, iv measured upto 24 hrs by LC-MS/MS analysis", "assay_type": "ADME, organism-based, Canis lupus familiaris", "settings": "in vivo"}, "[7]": {"test": "Cytotoxicity against cat CRFK cells assessed as reduction of cell viability", "assay_type": "toxicity, cell-based, Felis catus"}, "[8]": {"test": "AUC in Sprague-Dawley rat at 10 mg/kg, iv measured upto 24 hrs by LC-MS/MS analysis", "assay_type": "ADME, organism-based", "set-up": "time < 24 hrs, dose 10 mg/kg, route iv", "settings": "in vivo"}, "[9]": {"test": "Cytotoxicity against human Huh-7 cells assessed as reduction of cell viability", "assay_type": "toxicity, cell-based"}, "[10]": {"test": "Clearance in Sprague-Dawley rat at 10 mg/kg, iv measured upto 24 hrs by LC-MS/MS analysis", "assay_type": "ADME, organism-based", "settings": "in vivo"}, "[11]": {"test": "Half life in Sprague-Dawley rat at 10 mg/kg, iv measured upto 24 hrs by LC-MS/MS analysis", "assay_type": "ADME, organism-based", "settings": "in vivo"}, "[12]": {"test": "Cytotoxicity against mouse L929 cells assessed as reduction of cell viability", "assay_type": "toxicity, cell-based"}, "[13]": {"test": "Cytotoxicity against African green monkey Vero E6 cells assessed as reduction of cell viability by CellTiterGlo assay", "assay_type": "toxicity, cell-based, Vero C1008", "settings": "chlorocebus sabaeus"}, "[14]": {"test": "Clearance in Beagle dog at 5 mg/kg, iv measured upto 24 hrs by LC-MS/MS analysis", "assay_type": "ADME, organism-based, Canis lupus familiaris", "settings": "in vivo"}, "SARS-CoV [15]": {"tested_on": "SARS-CoV", "test": "microbe, parasite or virus in culture", "settings": "Severe acute respiratory syndrome-related coronavirus, Vero C1008, 48 h"}, "[16]": {"test": "Cytotoxicity against African green monkey Vero E6 cells assessed as reduction of cell viability by CCK8 assay", "assay_type": "toxicity, cell-based, Vero C1008", "settings": "chlorocebus sabaeus"}, "[17]": {"test": "Binding affinity to SARS CoV Main protease incubated for 10 mins by FRET assay", "set-up": "species or system Severe acute respiratory syndrome-related coronavirus"}, "[18]": {"test": "Drug concentration in mouse lung at 20 mg/kg, sc", "assay_type": "ADME, organism-based", "settings": "in vivo"}, "[19]": {"test": "Inhibition of SARS CoV Main protease using Dabcyl-KTSAVLQSGFRKM-E(Edans)-NH2 peptide as substrate by FRET assay", "set-up": "species or system Severe acute respiratory syndrome-related coronavirus"}, "[20]": {"test": "Mean residence time in mouse at 20 mg/kg, sc", "assay_type": "ADME, organism-based", "settings": "in vivo"}, "[21]": {"test": "Half life in mouse at 20 mg/kg, sc", "assay_type": "ADME, organism-based", "settings": "in vivo"}, "[22]": {"test": "Toxicity in rat assessed as median lethal dose", "settings": "in vivo, read-out: MLD"}, "SARS-CoV-2": {"tested_on": "SARS-CoV-2", "test": "Antiviral activity against SARS CoV-2 assessed as inhibition of viral growth", "assay_type": "functional, organism-based", "settings": "Severe acute respiratory syndrome coronavirus 2"}, "[23]": {"test": "Cytotoxicity against African green monkey Vero E6 cells assessed as reduction of cell viability by XTT assay", "assay_type": "toxicity, cell-based, Vero C1008", "settings": "chlorocebus sabaeus"}, "SARS-CoV [24]": {"tested_on": "SARS-CoV", "assay_type": "functional, organism-based, Vero E6", "settings": "Severe acute respiratory syndrome-related coronavirus, 2019-nCoV/USA_WA1/2020, Vero C1008, 72 h"}}, "data": [{"smiles": "CCOC(=O)/C=C/[C@H](C[C@@H]1CCNC1=O)NC(=O)[C@H](CC(C)C)NC(=O)[C@@H](NC(=O)OCc1ccccc1)C(C)C", "values": [{"measurement": "IC50", "setting": "[1]", "result": 9100, "unit": "nM"}, {"measurement": "Ki", "setting": "[2]", "result": 520, "unit": "nM"}]}, {"smiles": "O=C(Oc1cncc(Cl)c1)c1cccs1", "values": [{"measurement": "IC50", "setting": "[3]", "result": 81, "unit": "nM"}, {"measurement": "IC50", "setting": "[4]", "result": 500, "unit": "nM"}]}, {"smiles": "O=C[C@H](C[C@@H]1CCNC1=O)NC(=O)[C@H](Cc1cccc(F)c1)NC(=O)c1cc2ccccc2[nH]1", "values": [{"measurement": "AUC at 24 h", "setting": "[5]", "result": 14900, "unit": "ng·h/mL"}, {"measurement": "half-life", "setting": "[6]", "result": 5.5, "unit": "h"}, {"measurement": "CC50", "setting": "[7]", "result": "> 100000", "unit": "nM"}, {"measurement": "AUC at 24 h", "setting": "[8]", "result": 41500, "unit": "ng·h/mL"}, {"measurement": "CC50", "setting": "[9]", "result": "> 100000", "unit": "nM"}, {"measurement": "clearance", "setting": "[10]", "result": 4.01, "unit": "mL/min"}, {"measurement": "half-life", "setting": "[11]", "result": 7.6, "unit": "h"}, {"measurement": "CC50", "setting": "[12]", "result": "> 100000", "unit": "nM"}, {"measurement": "CC50", "setting": "[13]", "result": "> 100000", "unit": "nM"}, {"measurement": "clearance", "setting": "[14]", "result": 5.8, "unit": "mL/min"}]}, {"smiles": "C[C@@H](OC(C)(C)C)[C@H](NC(=O)OCc1ccccc1)C(=O)N[C@@H](CC1CCCCC1)C(=O)N[C@H](C=O)C[C@@H]1CCNC1=O", "values": [{"measurement": "EC50", "setting": "SARS-CoV [15]", "result": 600, "unit": "nM"}, {"measurement": "CC50", "setting": "[16]", "result": "> 200000", "unit": "nM"}, {"measurement": "Ki", "setting": "[17]", "result": 53, "unit": "nM"}]}, {"smiles": "CC(C)(C)OC(=O)Nc1cccn([C@@H](CC2CC2)C(=O)N[C@@H](C[C@@H]2CCNC2=O)C(=O)C(=O)NCc2ccccc2)c1=O", "values": [{"measurement": "Ct", "setting": "[18]", "result": 13, "unit": "ng/g"}, {"measurement": "IC50", "setting": "[19]", "result": 900, "unit": "nM"}, {"measurement": "MRT", "setting": "[20]", "result": 2.7, "unit": "h"}, {"measurement": "half-life", "setting": "[21]", "result": 1.8, "unit": "h"}]}, {"smiles": "O=c1c2ccccc2[se]n1Cc1ccco1", "values": [{"measurement": "LD50", "setting": "[22]", "result": "> 4600", "unit": "mg/kg"}, {"measurement": "IC50", "setting": "[3]", "result": 74, "unit": "nM"}, {"measurement": "Ki", "setting": "[3]", "result": 31, "unit": "nM"}, {"measurement": "EC50", "setting": "SARS-CoV-2", "result": 4670, "unit": "nM"}]}, {"smiles": "CCOC(=O)/C=C/[C@H](Cc1ccccc1)NC(=O)[C@H](Cc1ccccc1)NC(=O)/C=C\\c1ccc(N(C)C)cc1", "values": [{"measurement": "Ki", "setting": "[2]", "result": 660, "unit": "nM"}, {"measurement": "CC50", "setting": "[23]", "result": "> 200000", "unit": "nM"}, {"measurement": "EC50", "setting": "SARS-CoV [24]", "result": 18000, "unit": "nM"}]}]}
